Test results reported in patent publication US10689354B2, “Aminoazole derivative” (Teijin Pharma Limited, priority 2015, dated 2020).

How the values were obtained:
[1] = target: T1, androgen receptor (AR-LBD) (Rattus norvegicus, UniProt P15207); experiment: Evaluation of androgen receptor affinity (PolarScreen Androgen Receptor Competitor Assay Kit, Red; fluorescence polarization); conditions: 22° C. for 5 hours, relative to binding rate of 1 μM DHT, read-out: AR affinity (pEC50) (converted)
T1 construct: 5 μL of 2×AR-LBD/Fluoromone AL Red Complex contained in the kit; purchased Invitrogen
T1 sequence (P15207 651-882 limits assumed): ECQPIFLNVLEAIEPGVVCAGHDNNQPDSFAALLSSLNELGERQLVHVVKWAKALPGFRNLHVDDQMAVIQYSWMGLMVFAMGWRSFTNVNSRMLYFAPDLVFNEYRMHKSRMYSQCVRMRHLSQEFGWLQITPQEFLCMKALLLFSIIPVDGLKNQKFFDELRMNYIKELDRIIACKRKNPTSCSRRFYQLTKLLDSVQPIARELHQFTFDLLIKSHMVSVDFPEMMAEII
Summary of the method: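 Duplicate wells; compound plus AR-LBD tracer complex incubated 22° C for 5 h, then FP measured. Effect compared with 1 μM DHT; 50%-effect concentration expressed as pEC50.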

human androgen receptor = target: T2, human androgen receptor (Homo sapiens, UniProt P10275); experiment: Reporter assay of an androgen receptor responsive sequence (luciferase, transiently transfected HEK293 cells); assay type: cell-based; conditions: 24 hours incubation, relative to activity of 100 nM DHT, read-out: AR transcriptive activity (pEC50) (converted)
T2 construct: expressed in transfected cells; host or cells: HEK293
T2 sequence (P10275 1-920): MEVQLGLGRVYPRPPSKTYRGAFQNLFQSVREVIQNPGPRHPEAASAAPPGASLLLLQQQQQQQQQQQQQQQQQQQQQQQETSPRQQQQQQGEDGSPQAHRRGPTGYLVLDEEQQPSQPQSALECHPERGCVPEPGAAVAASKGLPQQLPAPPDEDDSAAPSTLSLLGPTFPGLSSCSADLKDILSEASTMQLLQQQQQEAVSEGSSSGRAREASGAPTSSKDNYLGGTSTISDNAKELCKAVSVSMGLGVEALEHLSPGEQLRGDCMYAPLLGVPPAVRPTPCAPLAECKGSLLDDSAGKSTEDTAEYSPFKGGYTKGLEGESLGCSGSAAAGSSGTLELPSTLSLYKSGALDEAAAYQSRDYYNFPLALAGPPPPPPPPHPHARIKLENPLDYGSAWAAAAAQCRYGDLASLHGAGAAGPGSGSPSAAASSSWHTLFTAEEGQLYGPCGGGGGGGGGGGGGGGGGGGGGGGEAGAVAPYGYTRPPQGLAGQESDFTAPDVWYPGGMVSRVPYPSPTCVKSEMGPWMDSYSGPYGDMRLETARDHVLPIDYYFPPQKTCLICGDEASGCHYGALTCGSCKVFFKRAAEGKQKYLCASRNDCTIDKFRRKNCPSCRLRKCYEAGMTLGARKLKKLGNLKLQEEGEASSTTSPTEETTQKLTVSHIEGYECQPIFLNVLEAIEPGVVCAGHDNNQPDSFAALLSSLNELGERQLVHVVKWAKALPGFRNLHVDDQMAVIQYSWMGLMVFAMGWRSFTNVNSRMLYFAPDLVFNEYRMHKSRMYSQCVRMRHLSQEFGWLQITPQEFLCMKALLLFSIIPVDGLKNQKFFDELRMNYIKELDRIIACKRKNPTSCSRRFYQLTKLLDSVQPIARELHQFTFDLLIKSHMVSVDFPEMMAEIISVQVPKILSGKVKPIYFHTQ
Summary of the method: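 Agonism scored as pEC50, fitted by 4-parameter curve against the response to 100 nM DHT, from dual-luciferase readout after 24 h compound treatment. Cells were HEK293 co-transfected (3 h) with human AR expression vector, androgen-responsive firefly reporter and Renilla control, in charcoal-stripped serum.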

| EC50 [1] | EC50 (human androgen receptor) | SMILES |
| --- | --- | --- |
| 31.6 nM | 158 nM | CCc1oc(N(Cc2ccc(Cl)cc2)c2ccc(C#N)cc2)nc1C(=O)NS(C)(=O)=O [Compound 623, 2-[N-[(4-chlorophenyl)methyl]-4-cyano-anilino]-5-ethyl-N-methylsulfonyl-oxazole-4-carboxamide] |
| > 2000 nM | > 10000 nM | Cc1sc(N(Cc2ccc(Cl)cc2)Cc2csc3cc(C(F)(F)F)ccc23)nc1C(=O)NS(C)(=O)=O [Compound 677, 2-[(4-chlorophenyl)methyl-[[6-(trifluoromethyl)benzothiophen-3-yl]methyl]amino]-5-methyl-N-methylsulfonyl-thiazole-4-carboxamide] |
| 25.1 nM | 63.1 nM | Cc1sc(N(CCc2ccc(Cl)cc2)Cc2ccc(Cl)cc2)nc1C(=O)NS(=O)(=O)Cc1cccnc1 [Compound 695, 2-[2-(4-chlorophenyl)ethyl-[(4-chlorophenyl)methyl]amino]-5-methyl-N-(3-pyridylmethylsulfonyl)thiazole-4-carboxamide] |
| 631 nM | > 10000 nM | Cc1oc(N(Cc2ccccc2)c2ccc(C(F)(F)F)nc2)nc1C(=O)NS(C)(=O)=O [Compound 620, 2-[benzyl-[6-(trifluoromethyl)-3-pyridyl]amino]-5-methyl-N-methylsulfonyl-oxazole-4-carboxamide] |
| 100 nM | 316 nM | Cc1sc(N(Cc2cc(F)cc3cccnc23)c2ccc(C#N)cc2)nc1C(=O)NS(C)(=O)=O [Example 174, 2-[4-cyano-N-[(6-fluoro-8-quinolyl)methyl]anilino]-5-methyl-N-methylsulfonyl-thiazole-4-carboxamide] |
| 50.1 nM | 200 nM | Cc1sc(N(Cc2cccc(N(C)C)c2)c2ccc(C#N)cc2)nc1C(=O)NS(C)(=O)=O [Example 215, 2-[4-cyano-N-[[3-(dimethylamino)phenyl]methyl]anilino]-5-methyl-N-methylsulfonyl-thiazole-4-carboxamide] |
| 25.1 nM | 79.4 nM | COCCCS(=O)(=O)NC(=O)c1nc(N(Cc2ccc(Cl)cc2)c2ccc(C#N)cc2)sc1C [Example 166, 2-[N-[(4-chlorophenyl)methyl]-4-cyano-anilino]-N-(3-methoxypropylsulfonyl)-5-methyl-thiazole-4-carboxamide] |
| 251 nM | > 10000 nM | Cc1sc(N(Cc2cccc(-n3ccnc3)c2)c2ccc(C#N)cc2)nc1C(=O)NS(C)(=O)=O [Example 218, 2-[4-cyano-N-[(3-imidazol-1-ylphenyl)methyl]anilino]-5-methyl-N-methylsulfonyl-thiazole-4-carboxamide] |
| 20 nM | 631 nM | CCc1oc(N(Cc2cc(F)cc(OC(F)F)c2)c2ccc(C#N)cc2)nc1C(=O)NS(C)(=O)=O [Compound 656, 2-[4-cyano-N-[[3-(difluoromethoxy)-5-fluoro-phenyl]methyl]anilino]-5-ethyl-N-methylsulfonyl-oxazole-4-carboxamide] |
| 200 nM | 631 nM | Cc1sc(N(Cc2cc(C(F)(F)F)ccn2)c2ccc(C#N)cc2)nc1C(=O)NS(C)(=O)=O [Example 186, 2-[4-cyano-N-[[4-(trifluoromethyl)-2-pyridyl]methyl]anilino]-5-methyl-N-methylsulfonyl-thiazole-4-carboxamide] |

Continued, molecule first:

| SMILES | EC50 [1] | EC50 (human androgen receptor) |
| --- | --- | --- |
| COCCCS(=O)(=O)NC(=O)c1nc(N(Cc2ccc(Cl)cn2)c2ccc(C#N)cc2)sc1C [Compound 163, 2-[N-[(5-chloro-2-pyridyl)methyl]-4-cyano-anilino]-N-(3-methoxypropylsulfonyl)-5-methyl-thiazole-4-carboxamide] | 200 nM | 251 nM |
| Cc1oc(N(CCc2ccc(Cl)cc2)CC[C@@H]2CCCC[C@H]2O)nc1C(=O)NS(C)(=O)=O (racemic) [Compound 547, 2-[2-(4-chlorophenyl)ethyl-[2-[trans-2-hydroxycyclohexyl]ethyl]amino]-5-methyl-N-methylsulfonyl-oxazole-4-carboxamide] | 316 nM | 2510 nM |
| Cc1sc(N(Cc2ccccc2)c2ccc3ncccc3c2)nc1C(=O)NS(C)(=O)=O [Compound 54, 2-[benzyl(6-quinolyl)amino]-5-methyl-N-methylsulfonyl-thiazole-4-carboxamide] | 398 nM | 1580 nM |
| Cc1sc(N(Cc2ccc(Cl)cc2F)c2ccc(C#N)cc2)nc1C(=O)NS(C)(=O)=O [Compound 70, 2-[N-[(4-chloro-2-fluoro-phenyl)methyl]-4-cyano-anilino]-5-methyl-N-methylsulfonyl-thiazole-4-carboxamide] | 31.6 nM | 63.1 nM |
| Cc1sc(N(CCc2ccc(F)cc2)Cc2ccccc2)nc1C(=O)NS(C)(=O)=O [Compound 340, 2-[benzyl-[2-(4-fluorophenyl)ethyl]amino]-5-methyl-N-methylsulfonyl-thiazole-4-carboxamide] | 100 nM | 251 nM |
| Cc1sc(N(Cc2ccc(-c3ccccc3F)cn2)c2ccc(C#N)cc2)nc1C(=O)NS(C)(=O)=O [Compound 594, 2-[4-cyano-N-[[5-(2-fluorophenyl)-2-pyridyl]methyl]anilino]-5-methyl-N-methylsulfonyl-thiazole-4-carboxamide] | 79.4 nM | 1580 nM |
| Cc1sc(N(Cc2cc3ccccc3o2)c2ccc(C#N)cc2)nc1C(=O)NS(C)(=O)=O [Compound 479, 2-[N-(benzofuran-2-ylmethyl)-4-cyano-anilino]-5-methyl-N-methylsulfonyl-thiazole-4-carboxamide] | 63.1 nM | 63.1 nM |
| Cc1sc(N(Cc2ccc(Cl)c(F)c2)c2ccc(C#N)cc2)nc1C(=O)NS(C)(=O)=O [Compound 116, 2-[N-[(4-chloro-3-fluoro-phenyl)methyl]-4-cyano-anilino]-5-methyl-N-methylsulfonyl-thiazole-4-carboxamide] | 31.6 nM | 25.1 nM |
| Cc1sc(N(Cc2ccccc2)c2ccc(C#N)cc2)nc1C(=O)NS(=O)(=O)CC(F)(F)F [Compound 372, 2-(N-benzyl-4-cyano-anilino)-5-methyl-N-(2,2,2-trifluoroethylsulfonyl)thiazole-4-carboxamide] | 31.6 nM | 1260 nM |
| Cc1sc(N(Cc2ccc3c(c2)CCO3)c2ccc(C#N)cc2)nc1C(=O)NS(C)(=O)=O [Compound 478, 2-[4-cyano-N-(2,3-dihydrobenzofuran-5-ylmethyl)anilino]-5-methyl-N-methylsulfonyl-thiazole-4-carboxamide] | 63.1 nM | 25.1 nM |
| Cc1sc(N(Cc2ccc3nsnc3c2)c2ccc(C#N)cc2)nc1C(=O)NS(C)(=O)=O [Compound 114, 2-[N-(2,1,3-benzothiadiazole-5-ylmethyl)-4-cyano-anilino]-5-methyl-N-methylsulfonyl-thiazole-4-carboxamide] | 126 nM | 158 nM |
| Cc1oc(N(CCc2ccc(Cl)cc2)Cc2ccc3ncsc3c2)nc1C(=O)NS(C)(=O)=O [Compound 545, 2-[1,3-benzothiazol-6-ylmethyl-[2-(4-chlorophenyl)ethyl]amino]-5-methyl-N-methylsulfonyl-oxazole-4-carboxamide] | 39.8 nM | 158 nM |
| Cc1oc(N(CCc2ccc(C#N)cc2)Cc2ccc(F)cc2)nc1C(=O)NS(C)(=O)=O [Compound 552, 2-[2-(4-cyanophenyl)ethyl-[(4-fluorophenyl)methyl]amino]-5-methyl-N-methylsulfonyl-oxazole-4-carboxamide] | 79.4 nM | 501 nM |
| COCCCCS(=O)(=O)NC(=O)c1nc(N(Cc2ccc(OC(F)(F)F)cc2)c2ccc(C#N)cc2)sc1C [Compound 539, 2-[4-cyano-N-[[4-(trifluoromethoxy)phenyl]methyl]anilino]-N-(4-methoxybutylsulfonyl)-5-methyl-thiazole-4-carboxamide] | 15.8 nM | 158 nM |
